Data taken from patent EP4553077A1 (Kinoteck Therapeutics Co., Ltd, priority 2022, dated 2024).

How the values were obtained:
Ba/F3-TEL-FGFR2 = Ba/F3-TEL-FGFR2 (Homo sapiens, UniProt P21802+P41212); assay: Cell viability (proliferation inhibition) of Ba/F3 cells, CellTiter Glo; details: read-out: Ba/F3 cell FGFR2 (IC50 nM), 72 h
Ba/F3-TEL-FGFR1 = Ba/F3-TEL-FGFR1 (Homo sapiens, UniProt P11362+P41212); assay: as above; details: read-out: Ba/F3 cell FGFR1 (IC50 nM), 72 h
A204 cells = assay: Proliferation inhibition, CCK-8 colorimetric method; type: cell-based; details: 72 h
Experimental: (§1) CCK-8 (Bimake/B34304) colorimetric method was used to detect the in vitro proliferation inhibitory effect of compounds on suspended or adherent cells in this experiment. The specific experimental steps were as follows: • 1) Cell plating: SNU16 and A204 tumor cells (cells from Shanghai Institute of Organic Chemistry, Chinese Academy of Sciences) in the logarithmic growth phase were digested and centrifuged for trypan blue counting, and the cells were seeded into a transparent 96 well plate at a density of 4000 cells/100 µ 1/well. […] The test compound and control compound stock solution were diluted with the corresponding culture medium required for cell culture (with or without solvent DMSO) to obtain a series of working solutions, with concentrations of twice the final concentration. The solvent DMSO contents in each concentration group were consistent with that of the solvent control group. The final concentration of A204 cells started at 10 µM and was diluted twice.
(§2) Calculation of cell survival rate: Cell survival rate (%)=[(As-Ac)/(Ab-Ac)] × 100%] (As: experimental well; Ab: Solvent control well; Ac: Blank well).

SNU16 cells = assay: as above; type: cell-based
Experimental: as §1, §2

[1] = Pharmacokinetic test in rats; type: in vivo, male SD rats; details: rat, plasma, oral gavage administration, 10 mg/kg
Experimental: Rat pharmacokinetic experiments were performed using male SD rats, 180-220g, provided by Beijing Vital River Laboratory Animal Technology Co., Ltd. 3 rats that were fasted overnight were taken, and administered orally by gavage (10 mg/kg). Blood samples were collected before administration, as well as 5, 15, 30 min and 1, 2, 4, 6, 8, 24 h after administration; another 3 rats were taken and administered intravenously (1 mg/kg), blood samples were collected before administration, as well as 5, 15, 30 min and 1, 2, 4, 6, 8, 24 h after administration. Blood sample was centrifuged at 6800g, 2-8 °C for 6 min, and plasma was collected, and stored at -80 °C. Plasma of each time point was taken, 10 times the amount of 50% methanol acetonitrile solution containing internal standard was added, and mixed by vortex for 5 min, centrifuged at 18000 rpm at 4 °C for 10 min, and the supernatant was taken directly for LC-MS/MS analysis. The main pharmacokinetic parameters were analyzed using WinNonlin8.2 software for non compartmental model analysis. Table 3: pharmacokinetic test in rats results of test compounds

Sequence of Ba/F3-TEL-FGFR2 (P21802 481-770 limits assumed, one chain of several): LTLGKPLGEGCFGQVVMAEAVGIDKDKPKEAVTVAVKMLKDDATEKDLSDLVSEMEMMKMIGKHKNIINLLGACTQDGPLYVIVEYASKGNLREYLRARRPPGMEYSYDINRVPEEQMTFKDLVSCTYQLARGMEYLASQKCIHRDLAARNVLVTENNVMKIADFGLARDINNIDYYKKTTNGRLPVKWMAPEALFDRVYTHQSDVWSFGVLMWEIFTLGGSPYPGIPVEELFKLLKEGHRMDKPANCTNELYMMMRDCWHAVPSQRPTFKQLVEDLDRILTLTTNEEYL
Sequence of Ba/F3-TEL-FGFR1 (P11362 478-767 limits assumed, one chain of several): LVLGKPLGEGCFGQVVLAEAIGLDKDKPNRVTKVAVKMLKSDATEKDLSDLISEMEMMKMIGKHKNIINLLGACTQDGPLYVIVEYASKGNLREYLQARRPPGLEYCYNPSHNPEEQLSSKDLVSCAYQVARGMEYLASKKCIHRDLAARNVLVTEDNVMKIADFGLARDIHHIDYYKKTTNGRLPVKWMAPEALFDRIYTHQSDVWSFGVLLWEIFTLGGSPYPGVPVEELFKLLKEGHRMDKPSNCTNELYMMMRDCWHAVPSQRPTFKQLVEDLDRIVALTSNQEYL

| Compound | IC50 (Ba/F3-TEL-FGFR2) [nM] | IC50 (Ba/F3-TEL-FGFR1) [nM] | other results |
| --- | --- | --- | --- |
| [2H]C([2H])([2H])n1c(-c2ccc(NC(=O)C(=C)C)cc2Cl)c(-c2ccc(N=S3(=O)CCC3)c(Cl)c2)c2c(N)ncnc21 [Compound 95, N-(4-(4-amino-5-(3-chloro-4-((1-oxo-1 λ^6-thietan-1-ylidene)amino)phenyl) -7-(methyl-d3) -7H-pyrrolo [2,3-d]pyrimidin-6-yl) -3-chlorophenyl) methacrylamide] | 0.7 | 484 | – |
| [2H]C([2H])([2H])n1c(-c2ccc(NC(=O)C(=C)C)cc2F)c(-c2ccc(N=S(=O)(CC)CC)cc2)c2c(N)ncnc21 [Compound 109] | 4.5 | – | IC50 (A204 cells; Homo sapiens): 1040 nM; IC50 (SNU16 cells; Homo sapiens, SNU-16, 72 h): 9.38 nM |
| CC#CC(=O)Nc1ccc(-c2c(-c3ccc(N=S4(=O)CCCCC4)c(F)c3)c3c(N)ncnc3n2C)cc1 [Compound 35, N-(4-(4-amino-5-(3-fluoro-4-((1-oxotetrahydro-2H-1 λ^6-thiopyran-1-ylidene)amino)phenyl) -7-methyl-7H-pyrrolo [2,3-d]pyrimidin-6-yl)phenyl) but-2-ynamide] | 4.4 | – | IC50 (A204 cells; Homo sapiens): 406 nM; IC50 (SNU16 cells; Homo sapiens, SNU-16, 72 h): 4.91 nM |
| C=C(F)C(=O)Nc1ccc(-c2c(-c3ccc(N=S4(=O)CCCC4)c(F)c3)c3c(N)ncnc3n2C)cc1 [Compound 21, N-(4-(4-amino-5-(3-fluoro-4-((1-oxotetrahydro-1 λ^6-thiophene-1-ylidene)amino)phenyl) -7-methyl-7H-pyrrolo [2,3-d]pyrimidin-6-yl)phenyl) -2-fluoroacrylamide] | 0.8 | – | IC50 (A204 cells; Homo sapiens): 333 nM; IC50 (SNU16 cells; Homo sapiens, SNU-16, 72 h): 1.72 nM |
| C=C(C)C(=O)Nc1ccc(-c2c(-c3ccc(N=S(=O)(N(C)C)C(F)(F)F)cc3)c3c(N)ncnc3n2C)c(F)c1 (stereo not drawn) [Compound 32] | 0.4 | – | IC50 (A204 cells): 2250 nM; IC50 (SNU16 cells; 72 h): 9.56 nM |
| C=C(C)C(=O)Nc1ccc(-c2c(-c3ccc(N=S4(=O)CC(C)(C)C4)cc3)c3c(N)ncnc3n2C)c(F)c1 [Compound 63] | 1.1 | 396 | AUC(0-t) [1]: 1700 ng·h/mL; Cmax [1]: 556 ng/mL; Tmax [1]: 0.5 h; half-life [1]: 2.59 h |
| C=C(C)C(=O)Nc1ccc(-c2c(-c3cc(F)c(N=S4(=O)CCC4)cc3F)c3c(N)ncnc3n2C)c(F)c1 [Compound 77, N-(4-(4-amino-5-(2,5-difluoro-4-((1-oxo-1λ^6-thiocyclobutan-1-ylidene)amino)phenyl) -7-methyl-7H-pyrrolo [2,3-d]pyrimidin-6-yl) -3-fluorophenyl) methacrylamide] | 4.7 | 884 | – |
| C=C(C)C(=O)Nc1ccc(-c2c(-c3ccc(N=S4(=O)CCC4)c(F)c3)c3c(N)ncnc3n2C)c(F)c1 [Compound 75] | 0.8 | 701 | – |
| C=C(C)C(=O)Nc1ccc(-c2c(-c3ccc(N=S4(=O)CCC4)c(F)c3)c3c(N)ncnc3n2C)c(C)c1 [Compound 70] | 2.7 | 775 | – |
| C=C(C)C(=O)Nc1ccc(-c2c(-c3ccc(N=S4(=O)CCCC4)c(C(F)F)c3)c3c(N)ncnc3n2C)c(F)c1 [Compound 89, N-(4-(4-amino-5-(3-(difluoromethyl) -4-((1-tetrahydro-1λ^6-thiophene-1-ylidene)amino)phenyl) -7-methyl-7H-pyrrolo [2,3-d]pyrimidin-6-yl) -3-fluorophenyl) methacrylamide] | 6.5 | 686 | – |
| [2H]C([2H])([2H])n1c(-c2ccc(NC(=O)C(=C)C)cc2Cl)c(-c2ccc(N=S3(=O)CCC3)c(F)c2)c2c(N)ncnc21 [Compound 84, N-(4-(4-amino-5-(3-fluoro-4-(1-oxo-1λ^6-thietan-1-imino)phenyl)-7-(methyl-d3)-7H-pyrrolo[2,3-d]pyrimidin-6-yl)-3-chlorophenyl)methacrylamide] | 0.8 | 250 | – |
| [2H]C([2H])([2H])n1c(-c2ccc(NC(=O)C(=C)C)cc2F)c(-c2ccc(N=S3(=O)CCCC3)c(Cl)c2)c2c(N)ncnc21 [Compound 82, N-(4-(4-amino-5-(3-chloro-4-((1-oxidetetrahydro-1λ^6-thiophene-1-ylidene)amino)phenyl)-7-(methyl-d3)-7H-pyrrolo[2,3-d]pyrimidin-6-yl)-3-fluorophenyl) methacrylamide] | 0.8 | 484 | – |
| C=C(C)C(=O)Nc1ccc(-c2c(-c3ccc(N=S4(=O)CCCC4)c(C)c3)c3c(N)ncnc3n2C)c(F)c1 [Compound 87, N-(4-(4-amino-7-methyl-5-(3-methyl-4-((1-tetrahydro-1λ^6-thiophene-1-ylidene)amino)phenyl) -7H-pyrrolo [2,3-d]pyrimidin-6-yl) -3-fluorophenyl) methacrylamide] | 2.1 | 666 | – |
| CCN1CCN(c2ccc(Nc3cc(N(C)C(=O)Nc4c(Cl)c(OC)cc(OC)c4Cl)ncn3)cc2)CC1 [BGJ398, reference compound] | – | – | IC50 (A204 cells; Homo sapiens): 100 nM; IC50 (SNU16 cells; Homo sapiens, SNU-16, 72 h): 4.3 nM |
| CN(C)C/C=C/C(=O)N1CC=C(c2c(-c3ccc(N=S4(=O)CCCCC4)cc3)c3c(N)ncnc3n2C)CC1 [Compound 67, (E)-1-(4-(4-amino-7-methyl-5-(4-((1-oxotetrahydro-2H-1λ^6-thiopyran-1-ylidene)amino)phenyl) -7H-pyrrolo [2,3-d]pyrimidin-6-yl) -3,6-dihydropyridine-1 (2H)-yl) -4-(dimethylamino) but-2-enyl-1-one] | 105 | – | – |
| C=C(C)C(=O)Nc1ccc(-c2c(-c3ccc(N=S4(=O)CCCC4)cc3)c3c(N)ncnc3n2C)cc1 [Compound 31] | 8.3 | 2090 | – |
| C=C(C)C(=O)Nc1ccc(-c2c(-c3ccc(N=S(=O)(CC)CC)c(F)c3)c3c(N)ncnc3n2C)c(C)c1 [Compound 101] | 4.7 | – | – |
| C=C(C)C(=O)Nc1ccc(-c2c(-c3ccc(N=S4(=O)CC(C)(C)C4)c(F)c3)c3c(N)ncnc3n2C)cc1 [Compound 57, N-(4-(4-amino-5-(4-((3,3-dimethyl-1-oxo-1λ^6-thiocyclobutyl-1-ylidene)amino) -3-fluorophenyl) -7-methyl-7H-pyrrolo [2,3-d]pyrimidin-6-yl)phenyl) methacrylamide] | 17.4 | – | – |
| C=C(C)C(=O)Nc1ccc(-c2c(-c3ccc(N=S(=O)(N4CCC4)C(F)(F)F)cc3)c3c(N)ncnc3n2C)cc1 (stereo not drawn) [Compound 51, N-(4-(4-amino-5-(4-((azetidin-1-yl(oxo)(trifluoromethyl)-λ^6-sulfanylidene)amino)phenyl) -7-methyl-7H-pyrrolo [2,3-d]pyrimidin-6-yl)phenyl) methacrylamide] | 19.1 | – | – |
| C=C(C)C(=O)Nc1ccc(-c2c(-c3ccc(N=S4(=O)CCC4)c(F)c3)c3c(N)ncnc3n2C)c(C)c1 [Compound 99] | 2.7 | – | – |
| C=C(C)C(=O)Nc1ccc(-c2c(-c3ccc(N=S4(=O)CCCC4)c(OC)c3)c3c(N)ncnc3n2C)c(Cl)c1 [Compound 81, N-(4-(4-amino-5-(3-methoxy-4-((1-hydroperoxid-1 λ^6-thiophene-1-ylidene)amino)phenyl) -7-methyl-7H-pyrrolo [2,3-d]pyrimidin-6-yl) -3-chlorophenyl) methacrylamide] | 18.1 | – | – |
| C=C(C)C(=O)Nc1ccc(-c2c(-c3ccc(N=S4(=O)CCCC4)c(F)c3)c3c(N)ncnc3n2C)c(C(F)F)c1 [Compound 59, N-(4-(4-amino-5-(3-fluoro-4-((1-oxotetrahydro-1 λ^6-thiophene-1-ylidene)amino)phenyl) -7-methyl-7H-pyrrolo [2,3-d]pyrimidin-6-yl) -3-(difluoromethyl)phenyl) methacrylamide] | 7.8 | 1320 | – |
| [2H]C([2H])([2H])n1c(-c2cc(C)c(NC(=O)C(=C)C)cc2F)c(-c2ccc(N=S3(=O)CCCC3)c(F)c2)c2c(N)ncnc21 [Compound 91, N-(4-(4-amino-5-(3-fluoro-4-((1-tetrahydro-1λ^6-thiophene-1-ylidene)amino)phenyl) -7-(methyl-d3) -7H-pyrrolo [2,3-d]pyrimidin-6-yl) -5-fluoro-2-methylphenyl) methacrylamide] | 23.9 | – | – |
| C=C(C)C(=O)Nc1ccc(-c2c(-c3ccc(N=S(C)(C)=O)cc3)c3c(N)ncnc3n2C)c(F)c1 [Compound 107] | 15.6 | 3630 | – |
| CC#CC(=O)N1CC=C(c2c(-c3ccc(N=S4(=O)CCCCC4)cc3)c3c(N)ncnc3n2C)CC1 [Compound 66] | 27.8 | – | – |
| C=C(C)C(=O)Nc1ccc(-c2c(-c3cc(F)c(N=S(=O)(CC)CC)cc3F)c3c(N)ncnc3n2C)c(F)c1 [Compound 76] | 6.1 | – | – |
